Values quoted from earlier work as cited in patent US20140294799A1, “USE OF COMPOSITIONS HAVING A LOW POLYAMINE CONTENT IN THE PREVENTION OR TREATMENT OF ADVERSE EFFECTS LINKED TO CANCER TREATMENT” (NUTRIALYS MEDICAL NUTRITION SA, priority 2011, published 2014).

Tested on: skin of irradiated animals
Settings: topical application to the skin of irradiated animals

Row | Compound | effect on dermatitis | effect on alopecia
1 | N=C(N)NCCCCN [agmatine] | reduce dermatitis | –
2 | NCCCNCCCCNCCCN [spermine] | – | effective in the treatment of alopecia
